This note sets out measurements from patent US20250381165A1, “Method of Use for Benzofuran Compounds” (Tampa Bay Research Institute, Inc., priority 2024, published 2025).

The target in data set [1] is T1, H-2Kb/SIINFEKL complex on DC2.4 (Mus musculus, UniProt P01901).
T1 construct: DC2.4 are a C57Bl/6 lineage murine cell line and as such they express MHC class I H-2Kb and H-2Db; endogenous in cells; host or cells: DC2.4 (murine dendritic cell line, from Dr. Kenneth Rock)
The experiment in a line: BFA decay experiment (SIINFEKL off-rate) on DC2.4. It is filed as cell-based, murine. As to conditions: 24 h pre-treatment, 1 h 30 nM SIINFEKL

In data set [2] the test system is DC2.4. Nature of the data set: CellTiter-Glo cell viability, DC2.4. It is filed as cell-based, murine. Also noted: effect on cell viability: unit of the concentration uncertain. Here is the method: BzFβ was then examined for its effect on the viability of several murine and human cell lines and primary murine splenocytes. The cytotoxicity of BzFβ was assessed using the CellTiter-Glo […] assay system according to manufacturer's instructions to determine BzFβ's effect on the viability of several murine and human cell lines and primary murine splenocytes.
DC2.4 cell line (Dr. Kenneth Rock, University of Massachusetts), RAW 264.7 cell line (American Type Culture Collection (ATCC), Manassas, VA; TIB 71), and IMG cell line (Millipore™, Merck KGaA, Burlington, MA; cat. no. SC-C134) were each cultured in complete Dulbecco's Modified Eagle Medium (cDMEM) containing […] glucose (Gibco™, Thermo Fisher Scientific Inc., Waltham, MA; cat. no. 10566-016) and supplemented with GlutaMAX, 50 U/mL penicillin and 50 µg/mL streptomycin (Gibco™; cat. no. 15070-063) and 10% heat inactivated fetal bovine serum (FBS) (R&D Systems, Inc., Minneapolis, MN; cat. no. […]
The cytotoxicity of BzFβ was assessed using the CellTiter-Glo cell […] viability assay system […] cat. no. […] CellTiter-Glo was added 1:1 in the media and the level of chemiluminescence was measured using luminescence at wavelengths of 200 nm to 700 nm through a photomultiplier on BioTek's Synergy HTX multimode microplate reader. […]

Broadly, the IC50 is the concentration at which inhibition is half-maximal.

T1 sequence (P01901 22-369): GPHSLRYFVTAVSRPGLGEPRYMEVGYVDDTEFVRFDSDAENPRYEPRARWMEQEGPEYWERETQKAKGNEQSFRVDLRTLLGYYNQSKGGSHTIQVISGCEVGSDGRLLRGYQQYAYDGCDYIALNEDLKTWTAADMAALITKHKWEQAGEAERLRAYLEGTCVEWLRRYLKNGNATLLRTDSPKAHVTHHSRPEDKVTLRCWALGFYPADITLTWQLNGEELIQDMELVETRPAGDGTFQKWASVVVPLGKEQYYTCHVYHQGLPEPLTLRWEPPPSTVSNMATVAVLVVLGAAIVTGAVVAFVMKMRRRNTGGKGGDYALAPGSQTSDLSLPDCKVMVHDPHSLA
T1 sequence (P01887 21-119 partner): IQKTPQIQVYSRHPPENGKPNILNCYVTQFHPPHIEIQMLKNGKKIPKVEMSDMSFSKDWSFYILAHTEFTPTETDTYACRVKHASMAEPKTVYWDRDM

Regarding `O=C(O)/C=C/c1ccc2occc2c1` [BzFβ, (2E)-3-(1-benzofuran-5-yl)prop-2-enoic acid], the “decay rate of SIINFEKL / stability of H-2Kb/SIINFEKL complex” value in data set [1] is “did not affect the decay rate of SIINFEKL”. Moreover, in data set [2] (Mus musculus, DC2.4, CellTiter-Glo), the IC50 came to 1150 µM. The “effect on cell viability” value in data set [2] (all the cell lines examined, except HEK293T, 24 h exposure, concentrations lower than 50 µg/mL (266 (unit uncertain))) was “small effects on cell viability”.
